Measured values as given in publication PMC7430679 (RNA, 2020).

Assays:
E. coli TsaD = E. coli TsaD (Escherichia coli, UniProt P05852); assay: STD NMR; type: binding; conditions: 20 µM protein, 1 mM amino acid, 10 mM potassium phosphate pH 6.8, 100 mM NaCl, 99% D2O, 37°C
T. maritima TsaD = T. maritima TsaD (Thermotoga maritima, UniProt Q9WXZ2); assay: STD NMR; type: binding; conditions: 20 µM protein, 1 mM amino acid, 10 mM potassium phosphate pH 6.8, 100 mM NaCl, 99% D2O, 37°C
Chain of T. maritima TsaD (Q9WXZ2 whole entry): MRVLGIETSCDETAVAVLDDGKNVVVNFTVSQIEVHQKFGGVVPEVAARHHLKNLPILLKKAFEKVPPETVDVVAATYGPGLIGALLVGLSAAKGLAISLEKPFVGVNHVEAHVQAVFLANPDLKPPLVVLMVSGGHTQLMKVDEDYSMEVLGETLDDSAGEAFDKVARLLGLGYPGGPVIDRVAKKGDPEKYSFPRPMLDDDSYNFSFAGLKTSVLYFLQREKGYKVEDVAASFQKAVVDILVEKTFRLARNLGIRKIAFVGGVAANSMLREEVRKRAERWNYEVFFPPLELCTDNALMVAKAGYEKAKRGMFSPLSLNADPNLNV

Chain of E. coli TsaD (P05852 whole entry): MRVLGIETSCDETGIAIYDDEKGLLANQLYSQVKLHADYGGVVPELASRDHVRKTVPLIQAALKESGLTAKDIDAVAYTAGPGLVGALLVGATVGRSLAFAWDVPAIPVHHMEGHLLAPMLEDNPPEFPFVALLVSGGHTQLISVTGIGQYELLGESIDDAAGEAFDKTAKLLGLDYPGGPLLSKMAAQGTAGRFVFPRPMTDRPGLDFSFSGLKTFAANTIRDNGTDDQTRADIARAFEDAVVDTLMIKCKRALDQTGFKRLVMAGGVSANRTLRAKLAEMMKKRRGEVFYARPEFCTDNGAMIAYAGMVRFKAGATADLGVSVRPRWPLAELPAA

| SMILES | STD NMR (E. coli TsaD) | STD NMR (T. maritima TsaD) | STD NMR (T. maritima TsaD; racemate tested) |
| --- | --- | --- | --- |
| C[C@@H](O)[C@H](N)C(=O)O [Thr, L-threonine] | E. coli TsaD shows a similar pattern of interaction with threonine | clear STD NMR signal for its interaction with the Hβ proton of threonine | – |
| CCC(O)C(N)C(=O)O (racemic) [hnV, D,L-3-hydroxynorvaline] | – | – | interaction with hydroxynorvaline, distinct signals due to interactions with the Hα and Hβ protons |
